Results published in paper PMC10746543, “Design principles for cyclin K molecular glue degraders” (Nature Chemical Biology, 2023).
pEC50, pIC50: −log10 of the molar value. Several values for one entry are separate records, joined by “and”; a condition that tells them apart may be missing. Equal values may be shown once. Read-outs that look alike come from different tables or passages of the source.

How the values were obtained:
CDK12–cyclin K = CDK12–cyclin K (Homo sapiens, UniProt Q9NYV4); experiment: Lanthascreen kinase binding assay, CDK12; conditions: for IC50: Supplementary Table 2, read-out: Lanthascreen IC50 [nM] CDK12; for Lanthascreen raw signal, sheet CDK12: duplicates
CDK12–cyclin K, sequence (Q9NYV4 713-1052): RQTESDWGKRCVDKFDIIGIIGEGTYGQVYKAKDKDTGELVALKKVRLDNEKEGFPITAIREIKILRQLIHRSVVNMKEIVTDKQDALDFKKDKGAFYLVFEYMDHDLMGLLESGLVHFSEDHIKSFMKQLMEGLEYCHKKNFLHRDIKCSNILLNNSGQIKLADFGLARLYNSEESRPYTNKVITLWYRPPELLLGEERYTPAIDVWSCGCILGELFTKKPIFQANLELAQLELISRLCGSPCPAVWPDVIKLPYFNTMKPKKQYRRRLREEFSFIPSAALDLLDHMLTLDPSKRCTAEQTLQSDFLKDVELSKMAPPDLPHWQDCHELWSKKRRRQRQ
CDK12–cyclin K, sequence (O75909 1-267 partner limits assumed): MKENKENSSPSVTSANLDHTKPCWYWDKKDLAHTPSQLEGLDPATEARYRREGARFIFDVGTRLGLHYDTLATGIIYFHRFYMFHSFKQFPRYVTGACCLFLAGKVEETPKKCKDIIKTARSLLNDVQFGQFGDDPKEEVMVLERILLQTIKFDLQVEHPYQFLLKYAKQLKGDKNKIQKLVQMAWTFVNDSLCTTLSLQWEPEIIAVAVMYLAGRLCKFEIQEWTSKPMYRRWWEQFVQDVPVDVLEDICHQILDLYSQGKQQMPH
Procedure: Lanthascreen experiments were performed using commercially available reagents (Thermo Fisher) and according to the manufacturer’s instructions.

HEK293T cells = experiment: Drug sensitivity assay (CellTiter-Glo viability) with or without MLN4924 pretreatment; assay type: cell-based, human; conditions: Supplementary Table 2; for pEC50: Homo sapiens, HEK-293T, HEK293T viability, 72 h, compound alone, read-out: Cellular assays EC50; for Toxicity rescue: MLN4924-mediated cytotoxicity rescue, 10 µM used where n.d.
Method in brief: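 Luminescent ATP read-out (CellTiter-Glo) after 3 days of drug exposure, normalised to DMSO controls. Cells were HEK293T–Cas9, pretreated with 100 nM MLN4924 or DMSO for 2 h before drug dispensing.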

[1] = compound 0.038147 nM, series r13
[2] = compound 0.152588 nM, series r13
[3] = compound 0.610352 nM, series r13
[4] = compound 9.76563 nM, series r13
[5] = compound 39.0625 nM, series r13

| Structure (SMILES) | IC50 (CDK12–cyclin K) | Lanthascreen raw signal, sheet CDK12 (CDK12–cyclin K; compound 1.02544 nM, series r1) | Lanthascreen raw signal, sheet CDK12 (CDK12–cyclin K; compound 3.15521 nM, series r1) | Lanthascreen raw signal, sheet CDK12 (CDK12–cyclin K; compound 9.46563 nM, series r1) | Lanthascreen raw signal, sheet CDK12 (CDK12–cyclin K; compound 31.5521 nM, series r1) | Lanthascreen raw signal, sheet CDK12 (CDK12–cyclin K; compound 99.3891 nM, series r1) | Lanthascreen raw signal, sheet CDK12 (CDK12–cyclin K; compound 315.521 nM, series r1) | Lanthascreen raw signal, sheet CDK12 (CDK12–cyclin K; compound 3155.21 nM, series r1) | Lanthascreen raw signal, sheet CDK12 (CDK12–cyclin K; compound 10002 nM, series r1) | pEC50 (HEK293T cells) | Toxicity rescue (HEK293T cells) | Lanthascreen raw signal, sheet CDK12 (CDK12–cyclin K; [1]) | Lanthascreen raw signal, sheet CDK12 (CDK12–cyclin K; [2]) | Lanthascreen raw signal, sheet CDK12 (CDK12–cyclin K; [3]) | Lanthascreen raw signal, sheet CDK12 (CDK12–cyclin K; [4]) | Lanthascreen raw signal, sheet CDK12 (CDK12–cyclin K; [5]) | Lanthascreen raw signal, sheet CDK12 (CDK12–cyclin K; compound 156.25 nM, series r13) | Lanthascreen raw signal, sheet CDK12 (CDK12–cyclin K; compound 625 nM, series r13) | Lanthascreen raw signal, sheet CDK12 (CDK12–cyclin K; compound 2500 nM, series r13) | Lanthascreen raw signal, sheet CDK12 (CDK12–cyclin K; compound 10000 nM, series r13) | further results |
| --- | --- | --- | --- | --- | --- | --- | --- | --- | --- | --- | --- | --- | --- | --- | --- | --- | --- | --- | --- | --- | --- |
| Cc1cc2nc(CNc3nc(N4CCN(C)CC4)nc4c(Br)cnn34)[nH]c2cc1C [DS73, reference compound] | 25 nM | 0.01046 and 0.009798 | 0.009054 and 0.008698 | 0.00642 and 0.008208 | 0.007402 and 0.006928 | 0.007817 and 0.006924 | 0.006025 and 0.005353 | 0.005515 and 0.005262 | 0.006527 and 0.0053 | 8.70 | 850% | – | – | – | – | – | – | – | – | – | – |
| O=C(CSc1nnc2c(n1)[nH]c1ccccc12)Nc1ccc(Cl)cn1 [dCeMM2] | > 10000 nM | 0.009008 and 0.01048 | 0.01033 and 0.00928 | 0.007656 and 0.01097 | 0.008129 and 0.008647 | 0.008644 and 0.009455 | 0.008456 and 0.007711 | 0.008398 and 0.008586 | 0.01123 and 0.01167 | 5.85 | 398% | 0.0112 and 0.01094 | 0.01131 and 0.01094 | 0.0113 and 0.01155 | 0.01084 and 0.01176 | 0.01123 and 0.01099 | 0.01158 and 0.0119 | 0.01045 and 0.01083 | 0.01145 and 0.01174 | 0.01298 and 0.0125 | pIC50 (CDK12–cyclin K; Lanthascreen, average, Extended Data Fig. 8, read-out: CDK12 IC50): < 5.00 |
| O=C(CSc1nc2ccccc2[nH]1)Nc1ccc(Cl)cn1 [dCeMM3] | 2670 nM | 0.009603 and 0.009325 | 0.009514 and 0.008733 | 0.008364 and 0.009802 | 0.009806 and 0.008597 | 0.01036 and 0.01052 | 0.008735 and 0.009176 | 0.007612 and 0.007481 | 0.006896 and 0.007143 | < 5.00 | 0% | 0.01104 and 0.01163 | 0.01112 and 0.01168 | 0.01247 and 0.01238 | 0.01196 and 0.01162 | 0.01144 and 0.01131 | 0.01124 and 0.01129 | 0.01063 and 0.01139 | 0.009917 and 0.009154 | 0.007835 and 0.008247 | – |
| Cc1ccc(C(=O)N2CSCC2C(=O)Nc2ncc(C)s2)o1 (stereo not drawn) [dCeMM4] | 6550 nM | 0.009042 and 0.01099 | 0.01068 and 0.009679 | 0.009286 and 0.009664 | 0.009025 and 0.009021 | 0.008619 and 0.008828 | 0.009446 and 0.008194 | 0.008559 and 0.007567 | 0.008529 and 0.007315 | 5.58 | 281% | 0.01232 and 0.01243 | 0.01076 and 0.01116 | 0.0114 and 0.01052 | 0.01092 and 0.01022 | 0.01118 and 0.01016 | 0.01038 and 0.009956 | 0.01123 and 0.01103 | 0.01034 and 0.009721 | 0.008264 | Lanthascreen raw signal, sheet CDK12 (CDK12–cyclin K; compound 0.038147 nM, series r49): 0.008613 and 0.007971; Lanthascreen raw signal, sheet CDK12 (CDK12–cyclin K; compound 0.152588 nM, series r49): 0.01012 and 0.009882; Lanthascreen raw signal, sheet CDK12 (CDK12–cyclin K; compound 0.610352 nM, series r49): 0.009497 and 0.01011; Lanthascreen raw signal, sheet CDK12 (CDK12–cyclin K; compound 9.76563 nM, series r49): 0.01048 and 0.01041; Lanthascreen raw signal, sheet CDK12 (CDK12–cyclin K; compound 39.0625 nM, series r49): 0.009518 and 0.009698; Lanthascreen raw signal, sheet CDK12 (CDK12–cyclin K; compound 156.25 nM, series r49): 0.009802 and 0.01107; Lanthascreen raw signal, sheet CDK12 (CDK12–cyclin K; compound 625 nM, series r49): 0.008992 and 0.00907; Lanthascreen raw signal, sheet CDK12 (CDK12–cyclin K; compound 2500 nM, series r49): 0.009117 and 0.008384; Lanthascreen raw signal, sheet CDK12 (CDK12–cyclin K; compound 10000 nM, series r49): 0.007507 and 0.007835 |
